According to patent publication US11866509B2, “Humanized antibodies against CEACAM1” (Famewave Ltd., priority 2014, dated 2024):

T1: CEACAM1 (Homo sapiens, UniProt P13688)
T1 sequence (P13688 35-526): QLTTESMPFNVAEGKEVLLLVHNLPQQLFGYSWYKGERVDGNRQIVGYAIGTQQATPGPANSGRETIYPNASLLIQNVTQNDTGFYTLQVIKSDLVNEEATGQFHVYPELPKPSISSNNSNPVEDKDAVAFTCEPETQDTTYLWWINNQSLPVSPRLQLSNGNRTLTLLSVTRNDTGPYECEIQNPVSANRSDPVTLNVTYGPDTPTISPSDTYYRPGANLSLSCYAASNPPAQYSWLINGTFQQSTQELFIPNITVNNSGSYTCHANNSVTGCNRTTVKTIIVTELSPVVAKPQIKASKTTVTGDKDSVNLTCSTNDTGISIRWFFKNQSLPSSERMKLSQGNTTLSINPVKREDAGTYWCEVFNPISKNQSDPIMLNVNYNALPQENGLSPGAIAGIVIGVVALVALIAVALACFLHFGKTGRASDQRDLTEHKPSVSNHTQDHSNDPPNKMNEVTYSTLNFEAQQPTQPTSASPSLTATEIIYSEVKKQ


Assays:
[1] = test system: B-Raf V600E cell samples (526mel, 624mel); assay: T-cell induced killing of melanoma cells, LDH release; assay type: cell-based, human; details: 1 μM, effector-target ratio 5:1, overnight
Method: More specifically, whereas only 50% ( 3/6) of the melanoma cells having a wild type B-Raf, i.e. a valine in position 600, expressed detectable levels of CEACAM1 (Ct of 36 and less), 100% (18/18) of the melanoma cells having a mutated B-Raf, i.e. a glutamic acid in position 600, expressed detectable levels of CEACAM1 (Ct of 36 and less). • B. CEACAM1 extracellular staining of cancer cells treated with B-Raf or MEK inhibitors. […] At each time point, CEACAM1 expression on the cells was determined by FACS. Volume equivalents of DMSO (vehicle) were used as control. […] Inhibitor-resistant cancer cells show increase in CEACAM1 expression and restored activity of MAPK pathway. Two vemurafenib-sensitive B-Raf V600E cell samples (526mel, 624mel) and vemurafenib-resistant cell lines derived therefrom were incubated for 2 days with 1 μM vemurafenib. Cells were then analyzed for CEACAM1 protein expression by FACS as described above. […] MAPK activity was measured in vemurafenib-sensitive and vemurafenib-resistant B-Raf V600E (624mel) cell samples by immunoblotting for phosphorylated ERK1/2 (pERK, Thr202/Tyr204), total ERK1/2 and actin after 24 hours of exposure to 160 nM vemurafenib. […] Initial vemurafenib concentration was 0.01 of the determined IC50 (0.64 nM). […] Cell killing was determined by LDH release. […]

[2] = test system: CEACAM1 expression on sk-mel-2 cells; assay: CEACAM1 extracellular staining by FACS, W.T. B-Raf mutated N-Ras cells; assay type: cell-based, human; details: 1 μM
Method: Volume equivalents of DMSO (vehicle) were used as control. […] Cells were then analyzed for CEACAM1 protein expression by FACS as described above. Vemurafenib-resistant cell lines were generated by gradual increase of the inhibitor's concentration in culture, up to 0.32 μM. […] Cells were then tested for CEACAM1 expression using MRG1 (murine antibody to human CEACAM1) in flow cytometry as described above. Total RNA was extracted with TRIZOL and cDNA was generated with a reverse transcriptase, according to routine protocols.

CEACAM1 = biological target: T1, CEACAM1; details: WO 2010/125571, WO 2013/054331; cited from earlier work

| Molecule | sensitization to cytotoxic T cells [1] | effect on CEACAM1 expression levels [2] | selectivity to CEACAM1 (CEACAM1) |
| --- | --- | --- | --- |
| CCCS(=O)(=O)Nc1ccc(F)c(C(=O)c2c[nH]c3ncc(-c4ccc(Cl)cc4)cc23)c1F [vemurafenib] | significantly sensitizes melanoma cells to cytotoxic T cells | no effect |  |
| CM-10: chimeric anti-CEACAM-1 antibody disclosed in WO 2013/054331 (antibody, V domains shown) VH: QVQLQQSGAELVRPGTSVKVSCKASGYAFTNNLIEWVKQRPGQGLEWIGVINPGSGDTNYNEKFKGKATLTADKSSNTAYMQLSSLTSDDSAVYFCARGDYYGGFAVDYWGQGTSVTVSS VL: DIQMTQTTSSLSASLGDRVTISCRTSQDIGNYLNWYQQKPDGTVKLLIYYTSRLHSGVPSRFSGSGSGTDYSLTISNLEQEDIATYFCQQGKSLPRTFGGGTKLEIK |  |  | highly selective to CEACAM1 |
